Results as given in ChEMBL document CHEMBL6078680, “Improving the Stability and Anti-Infective Activity of Sea Turtle AMPs Using Multiple Structural Modification Strategies” (J Med Chem, 2024).
Calls of active or inactive are those of the source. The calls are words filed in the database; no cut-off is given here.

What was measured:
[1] = Acute toxicity in BALB/c mouse assessed as mortality at 20 mg/kg, iv measured for 24 hrs; assay type: organism-based; details: in vivo, read-out: Activity
[2] = Acute toxicity in BALB/c mouse assessed as effect on BUN level at 10 mg/kg, iv measured for 24 hrs; assay type: organism-based; details: in vivo
Acinetobacter baumannii [3] = assay: In vivo antibacterial activity against Acinetobacter baumannii ATCC19606 infected in BALB/c mouse assessed as reduction in bacterial load in kidney at 15 mg/kg, ip measured after 12 hrs; assay type: functional, organism-based
Clostridium perfringens = assay: Antimicrobial activity against Clostridium perfringens ATCC 13124 assessed as reduction in microbial growth incubated for 18 hrs by broth microdilution method; assay type: functional
Acinetobacter baumannii [4] = assay: Antibiofilm activity against Acinetobacter baumannii ATCC 19606 assessed as inhibition of biofilm formation at 0.5 times MIC incubated for 48 hrs by crystal violet staining based analysis; assay type: functional
Acinetobacter baumannii [5] = assay: In vivo antibacterial activity against Acinetobacter baumannii ATCC19606 infected in BALB/c mouse assessed as survival at 15 mg/kg, ip administered for 12 hrs and measured after 3 hrs; assay type: functional; details: time 15 hrs
Staphylococcus aureus [6] = assay: Antimicrobial activity against Staphylococcus aureus CMCC 26003 assessed as reduction in microbial growth incubated for 18 hrs by broth microdilution method; assay type: functional
Enterococcus faecalis = assay: Antimicrobial activity against Enterococcus faecalis ATCC 29217 assessed as reduction in microbial growth incubated for 18 hrs by broth microdilution method; assay type: functional
Acinetobacter baumannii [7] = assay: In vivo antibacterial activity against Acinetobacter baumannii ATCC19606 infected in BALB/c mouse assessed as reduction in bacterial load in lung at 15 mg/kg, ip measured after 3 hrs; assay type: functional, organism-based
Peritoneal macrophage [8] = assay: Antiinflammatory activity in mouse Peritoneal macrophage cells assessed as inhibition of LPS-induced TNF-alpha production at 20 microg/ml incubated for 6 hrs by ELISA analysis; assay type: functional, cell-based; details: dose 20.0 µg/ml
Staphylococcus aureus [9] = assay: Antibacterial activity against Staphylococcus aureus CMCC 26003 assessed as increase in intracellular ROS production incubated for 1 hr by DCFH-DA staining based assay; assay type: functional, organism-based
Staphylococcus aureus [10] = assay: Bactericidal activity against Staphylococcus aureus CMCC 26003 assessed as bacterial eradication incubated at 0.5 hrs in presence of thiourea; assay type: functional, organism-based
Cell membrane = assay: Disruption of cell membrane integrity in Staphylococcus aureus CMCC 26003 assessed as cell membrane damage at 5 times MIC measured after 30 mins by scanning electron microscopic analysis; assay type: subcellular
Acinetobacter baumannii [11] = assay: In vivo antibacterial activity against Acinetobacter baumannii ATCC19606 infected in BALB/c mouse assessed as reduction in bacterial load in liver at 15 mg/kg, ip measured after 3 hrs; assay type: functional, organism-based
[12] = Acute toxicity in BALB/c mouse assessed as mortality at 50 mg/kg, iv measured for 24 hrs; assay type: organism-based; details: in vivo, read-out: Activity
Escherichia coli [13] = assay: Antibacterial activity against Escherichia coli ATCC 25922 at 1 times MIC in presence of exogenous DNA; assay type: functional, organism-based
Escherichia coli [14] = assay: Antimicrobial activity against Escherichia coli CMCC44102 assessed as reduction in microbial growth incubated for 18 hrs by broth microdilution method; assay type: functional
Peritoneal macrophage [15] = assay: Antiinflammatory activity in mouse Peritoneal macrophage cells assessed as inhibition of LPS-induced IL-6 production at 20 microg/ml incubated for 6 hrs by ELISA analysis; assay type: functional, cell-based; details: dose 20.0 µg/ml
Staphylococcus aureus [16] = assay: Antipersister-activity against Staphylococcus aureus CMCC 26003 assessed as elimination of persister cells at 50 times MIC preincubated adherent persistent cells with colistin incubation for 24 hrs; assay type: functional
Staphylococcus aureus [17] = assay: Antimicrobial activity against Staphylococcus aureus 08032706 assessed as reduction in microbial growth incubated for 18 hrs by broth microdilution method; assay type: functional
Acinetobacter baumannii [18] = assay: Antibiofilm activity against Acinetobacter baumannii ATCC 19606 assessed as biofilm eradication incubated for 24 hrs by crystal violet staining based analysis; assay type: functional, organism-based
Staphylococcus aureus [19] = assay: Antibiofilm activity against Staphylococcus aureus CMCC 26003 assessed as biofilm eradication incubated for 24 hrs by crystal violet staining based analysis; assay type: functional, organism-based
Staphylococcus aureus [20] = assay: Antimicrobial activity against Staphylococcus aureus ATCC 43300 assessed as reduction in microbial growth incubated for 18 hrs by broth microdilution method; assay type: functional
Staphylococcus aureus [21] = assay: Antibiofilm activity against Staphylococcus aureus CMCC 26003 assessed as reduction in biofilm formation at 0.5 times MIC incubated for 24 hrs by crystal violet staining based analysis; assay type: functional; set-up: scale not given: the % may be the effect or the level left
[22] = Acute toxicity in BALB/c mouse assessed as effect on ALT level at 10 mg/kg, iv measured for 24 hrs; assay type: organism-based; details: in vivo
Escherichia coli [23] = assay: Antibacterial activity against Escherichia coli ATCC 25922 assessed as increase in intracellular ROS production at 2 to 5 times MIC by DCFH-DA staining based assay; assay type: functional, organism-based
Acinetobacter baumannii [24] = assay: Antipersister-activity against Acinetobacter baumannii ATCC 19606 assessed as elimination of persister cells at 50 times MIC preincubated adherent persistent cells with colistin incubation for 24 hrs; assay type: functional
Acinetobacter baumannii [25] = assay: Drug resistance, ratio of MIC for Acinetobacter baumannii ATCC1960 after 40 passages to MIC for Acinetobacter baumannii ATCC1960 during first exposure; assay type: functional
[26] = test system: Staphylococcus epidermidis; assay: Antimicrobial activity against Staphylococcus epidermidis assessed as reduction in microbial growth incubated for 18 hrs by broth microdilution method; assay type: functional
Acinetobacter baumannii [27] = assay: In vivo antibacterial activity against Acinetobacter baumannii ATCC19606 infected in BALB/c mouse assessed as reduction in bacterial load in lung at 15 mg/kg, ip measured after 12 hrs; assay type: functional, organism-based
Acinetobacter baumannii [28] = assay: In vivo antibacterial activity against Acinetobacter baumannii ATCC19606 infected in BALB/c mouse assessed as reduction in bacterial load in kidney at 15 mg/kg, ip measured after 3 hrs; assay type: functional, organism-based
[29] = Acute toxicity in BALB/c mouse assessed as mortality at 10 mg/kg, iv measured for 24 hrs; assay type: organism-based; details: in vivo, read-out: Activity
Acinetobacter baumannii [30] = assay: Antibiofilm activity against Acinetobacter baumannii ATCC 19606 assessed as inhibition of biofilm formation incubated for 48 hrs by crystal violet staining based analysis; assay type: functional, organism-based
Acinetobacter baumannii [31] = assay: In vivo antibacterial activity against Acinetobacter baumannii ATCC19606 infected in BALB/c mouse assessed as reduction in bacterial load at 15 mg/kg, ip; assay type: functional, organism-based; details: time 3.0 hrs
Staphylococcus aureus [32] = assay: Antibiofilm activity against Staphylococcus aureus CMCC 26003 assessed as inhibition of biofilm formation incubated for 48 hrs by crystal violet staining based analysis; assay type: functional, organism-based
Escherichia coli [33] = assay: Antibacterial activity against Escherichia coli ATCC 25922 assessed as increase in intracellular ROS production at 1 times MIC by DCFH-DA staining based assay; assay type: functional, organism-based

SMILES: CC[C@H](C)[C@H](NC(=O)[C@H](CCCNC(=N)N)NC(=O)[C@H](CO)NC(=O)[C@H](Cc1c[nH]cn1)NC(=O)[C@H](CCCNC(=N)N)NC(=O)[C@H](CC(C)C)NC(=O)[C@@H](NC(=O)[C@H](CCCNC(=N)N)NC(=O)CNC(=O)[C@H](CC(C)C)NC(=O)[C@H](CCC(N)=O)NC(=O)[C@H](CCCCN)NC(=O)[C@H](CCCNC(=N)N)NC(=O)[C@@H](NC(=O)[C@H](CCCCN)NC(=O)[C@H](CCCCN)NC(=O)[C@@H](N)Cc1ccccc1)C(C)C)C(C)C)C(=O)N[C@H](C(=O)N[C@H](C(=O)NCC(=O)NCC(=O)N[C@@H](CCCNC(=N)N)C(=O)N[C@@H](CCSC)C(=O)N[C@@H](CCCNC(=N)N)C(=O)N[C@@H](Cc1ccccc1)C(=O)O)C(C)C)[C@@H](C)O
- mortality at 24 h [1]: 0%
- Activity [2]: Non-toxic
- Activity (Acinetobacter baumannii [3]): Active
- MIC (Clostridium perfringens): 2.34 µg/mL
- inhibition (INH) (Acinetobacter baumannii [4]): 10%
- Activity (Acinetobacter baumannii [5]): >60%
- MIC (Staphylococcus aureus [6]): 2.34 µg/mL
- MIC (Enterococcus faecalis): 4.69 µg/mL
- Activity (Acinetobacter baumannii [7]): Active
- Activity (Peritoneal macrophage [8]): Active
- Activity (Staphylococcus aureus [9]): Dose-dependent-effect
- Activity (Staphylococcus aureus [10]): Active
- Activity (Cell membrane): Active
- Activity (Acinetobacter baumannii [11]): Active
- mortality at 24 h [12]: 16.7%
- Activity (Escherichia coli [13]): Active
- MIC (Escherichia coli [14]): 2.34 µg/mL
- Activity (Peritoneal macrophage [15]): Active
- Activity (Staphylococcus aureus [16]): 50%
- MIC (Staphylococcus aureus [17]): 9.38 µg/mL
- Activity (Acinetobacter baumannii [18]): Active
- Activity (Staphylococcus aureus [19]): Active
- MIC (Staphylococcus aureus [20]): 75 µg/mL
- Activity (Staphylococcus aureus [21]): 20%
- Activity [22]: Non-toxic
- Activity (Escherichia coli [23]): Active
- Activity (Acinetobacter baumannii [24]): 60%
- Ratio (Acinetobacter baumannii [25]): 1
- MIC [26]: 18.8 µg/mL
- Activity (Acinetobacter baumannii [27]): Active
- Activity (Acinetobacter baumannii [28]): Active
- mortality at 24 h [29]: 0%
- Activity (Acinetobacter baumannii [30]): Active
- Activity (Acinetobacter baumannii [31]): Time-dependent-effect
- Activity (Staphylococcus aureus [32]): Active
- Activity (Escherichia coli [33]): Active
